Usually melting point stands for the temperature, or range, at which the solid turns liquid. On to `COc1cc2c(Nc3ccc(C)c(O)c3)ncnc2cc1OCc1ccncc1.Cl`, for which the melting point lay in the range of 249 to 251 °C.

Regarding `COc1cc2c(Nc3ccc(C)c(O)c3)ncnc2cc1OCc1c(C)noc1C.Cl`, the melting point fell in the range of 252 to 254 °C.

`COc1cc2c(Nc3ccc(C)c(O)c3)ncnc2cc1OCCCc1ccncc1.Cl` had a melting point of 278 to 282 °C.

`COc1cc2c(Nc3cc(O)c(C)cc3F)ncnc2cc1OCCCc1ccncc1.Cl` yielded a melting point of 246 to 248 °C.

`COc1cc2c(Nc3cc(O)c(C)cc3F)ncnc2cc1OCc1ccncc1.Cl` gave a melting point of 257 to 260 °C.

Take `COc1cc2c(Nc3cc(O)c(C)cc3F)ncnc2cc1OCc1ccccc1.Cl`: the melting point fell in the range of 294 to 298 °C.

`COc1cc2c(Nc3ccc(Cl)cc3F)ncnc2cc1OCc1csc(C)n1.Cl` showed a melting point of 220 to 225 °C.

`COc1cc2c(Nc3cc(O)c(C)cc3F)ncnc2cc1OCCn1ccnc1.Cl` showed a melting point of 195 to 220 °C.

For `COc1cc2c(Nc3cc(O)c(C)cc3F)ncnc2cc1OCc1ccc(C#N)cc1.Cl`, the melting point was 265 to 270 °C.

The molecule `COc1cc2c(Nc3ccc(Cl)cc3F)ncnc2cc1OCCc1ccncc1.Cl` came in with a melting point of 189 to 191 °C.

For the molecule `COc1cc2c(Nc3ccc(Cl)cc3F)ncnc2cc1OCc1cccnc1.Cl`, the melting point lay within 216 to 221 °C.

Regarding `COc1cc2c(Nc3ccc(C)c(O)c3)ncnc2cc1OCc1ccccn1.Cl`, the melting point was in the range of 236 to 238 °C.

`COc1cc2c(Nc3ccc(Cl)cc3F)ncnc2cc1OCCc1nccn1C.Cl`: the melting point was 224 to 229 °C.

Turning to `COc1cc2c(Nc3ccc(Cl)cc3F)ncnc2cc1OCc1ccncn1.Cl`, the melting point lay within 237 to 239 °C.

Molecule `COc1cc2c(Nc3ccc(Cl)cc3F)ncnc2cc1OCCCN(C)c1ccncc1.Cl` displayed a melting point of 243 to 248 °C.

For the molecule `COc1cc2c(Nc3ccc(Cl)cc3F)ncnc2cc1OCCN(C)c1ncccn1.Cl`, the melting point lay in the range of 194 to 196 °C.

`COc1cc2c(Nc3cc(O)c(C)cc3F)ncnc2cc1OCc1ccnc(Cl)c1.Cl` yielded a melting point of 245 to 250 °C.

In turn, `COc1cc2c(Nc3ccc(C)c(O)c3)ncnc2cc1OCc1nccn1C.Cl` returned a melting point of 257 to 260 °C.

Turning to `COc1cc2c(Nc3ccc(Cl)cc3F)ncnc2cc1OCc1cc(Cl)[nH]c(=O)c1.Cl`, the melting point is 271 to 273 °C (dec.).

`COc1cc2c(Nc3ccc(C)c(O)c3)ncnc2cc1OCc1csc(C)n1.Cl` registered a melting point of 243 to 245 °C.

The molecule `Cl.Oc1cc(Nc2ncnc3cc(OCc4ccccc4)ccc23)c(F)cc1Cl` returned a melting point of 253 to 257 °C.

As to `COc1cc2c(Nc3cc(O)c(Cl)cc3F)ncnc2cc1OCc1ccsc1.Cl`, the melting point lay within 277 to 281 °C.

For the molecule `COc1cc2c(Nc3ccc(C)c(O)c3)ncnc2cc1OCc1ccsc1.Cl`, the melting point was in the range of 246 to 248 °C.

Molecule `COc1cc2c(Nc3ccc(Cl)cc3F)ncnc2cc1OCc1csc(NC(C)=O)n1.Cl` displayed a melting point of 194 to 202 °C.

`COc1cc2c(Nc3ccc(C)c(O)c3)ncnc2cc1OCc1csc(NC(C)=O)n1.Cl` showed a melting point of 202 to 204 °C.

`COc1cc2c(Nc3ccc(Cl)cc3F)ncnc2cc1OCc1ccnc(N(C)C)c1.Cl` showed a melting point of 290 °C.

The molecule `COc1cc2c(Nc3ccc(C)c(OC(C)=O)c3)ncnc2cc1OCc1cccnc1` [Example 2, 4-(3-acetoxy-4-methylanilino)-6-methoxy-7-(3-pyridylmethoxy)quinazoline] showed a melting point of 113 to 115 °C.

The molecule `COc1cc2c(Nc3ccc(C)c(O)c3)ncnc2cc1OCc1cccnc1` [Example 3, 4-(3-hydroxy-4-methylanilino)-6-methoxy-7-(3-pyridylmethoxy)quinazoline] registered a melting point of 258 to 259 °C.

`COc1cc2c(Nc3ccc(C)c(O)c3)ncnc2cc1OCc1ccncn1` [Example 5, 4-(3-hydroxy-4-methylanilino)-6-methoxy-7-(pyrimidin-4-ylmethoxy)quinazoline] showed a melting point of 290 to 291 °C.

`COc1cc2c(Nc3ccc(Cl)cc3F)ncnc2cc1OCCOc1ccncc1` [Example 17, 4-(4-chloro-2-fluoroanilino)-6-methoxy-7-(2-(4-pyridyloxy)ethoxy)quinazoline]: the melting point was in the range of 200 to 202 °C.

Turning to `COc1cc2c(Nc3ccc(Cl)cc3F)ncnc2cc1OCCn1ccccc1=O` [Example 18, 4-(4-chloro-2-fluoroanilino)-6-methoxy-7-[2-(2-oxo-1,2-dihydro-1-pyridyl)ethoxy]quinazoline], the melting point fell in the range of 209 to 211 °C.

As for `COc1cc2c(Nc3ccc(Cl)cc3F)ncnc2cc1OCCCn1ccc(=O)cc1` [Example 19, 4-(4-chloro-2-fluoroanilino)-6-methoxy-7-[3-(4-oxo-1,4-dihydro-1-pyridyl)propoxy]quinazoline], the melting point was > 250 °C.

Take `COc1cc2c(Nc3ccc(Cl)cc3F)ncnc2cc1OCc1ccccn1` [Example 39, 4-(4-chloro-2-fluoroanilino)-6-methoxy-7-((2-pyridyl)methoxy)quinazoline]: the melting point is 215 to 218 °C.

Regarding `COc1cc2c(Oc3ccc(Cl)cc3F)ncnc2cc1OCc1ccncc1` [Example 44, 4-(4-chloro-2-fluorophenoxy)-6-methoxy-7-((4-pyridyl)methoxy)quinazoline], the melting point was 197 to 198 °C.

Take `COc1cc2c(Nc3ccc(Cl)cc3F)ncnc2cc1OCCN(C)c1cc(C)nc(C)c1` [Example 46, 4-(4-chloro-2-fluoroanilino)-7-(2-(N-(2,6-dimethyl-4-pyridyl)-N-methylamino)ethoxy)-6-methoxyquinazoline]: the melting point fell in the range of 208 to 212 °C.

The molecule `COc1cc2c(Nc3ccc(Cl)cc3F)ncnc2cc1OCc1ccnc(Br)c1` [Example 59, 7-((2-bromo-4-pyridyl)methoxy)-4-(4-chloro-2-fluoroanilino)-6-methoxyquinazoline] returned a melting point of 210 to 212 °C.

On to `COc1cc2c(Nc3ccc(Cl)cc3F)ncnc2cc1OCc1ccnc(C#N)c1` [Example 60, 4-(4-chloro-2-fluoroanilino)-7-((2-cyano-4-pyridyl)methoxy)-6-methoxyquinazoline], for which the melting point fell in the range of 209 to 213 °C.

`COc1cc(COc2cc3ncnc(Nc4ccc(Cl)cc4F)c3cc2OC)ccn1` [Example 62, 4-(4-chloro-2-fluoroanilino)-7-((2-methoxy-4-pyridyl)methoxy)-6-methoxyquinazoline] returned a melting point of 202 to 204 °C.

`COc1cc2c(Nc3ccc(Cl)cc3F)ncnc2cc1OCc1ccnc(C)c1` [Example 63, 4-(4-chloro-2-fluoroanilino)-6-methoxy-7-((2-methyl-4-pyridyl)methoxy)quinazoline] returned a melting point of 221 to 224 °C.

`COc1cc2c(Nc3ccc(Cl)cc3F)ncnc2cc1OCCCn1ccccc1=O` [Example 65, 4-(4-chloro-2-fluoroanilino)-6-methoxy-7-(3-(2-oxo-1,2-dihydro-1-pyridyl)propoxy)quinazoline] showed a melting point of 216 to 218 °C.

`COc1cc2c(Nc3ccc(Cl)cc3F)ncnc2cc1OCCCSc1nccn1C` [Example 66, 4-(4-chloro-2-fluoroanilino)-6-methoxy-7-(3-(1-methylimidazol-2-ylthio)propoxy)quinazoline] returned a melting point of 199 to 201 °C.

As for `COc1cc2c(Nc3ccc(Cl)cc3F)ncnc2cc1OCCCOc1ccncc1` [Example 67, 4-(4-chloro-2-fluoroanilino)-6-methoxy-7-(3-(4-pyridyloxy)propoxy)quinazoline], the melting point is 138 to 140 °C.

In turn, `COc1cc2c(Nc3ccc(Cl)cc3F)ncnc2cc1OCCSc1ccncc1` [Example 68, 4-(4-chloro-2-fluoroanilino)-6-methoxy-7-(2-(4-pyridylthio)ethoxy)quinazoline] yielded a melting point of 182 to 186 °C.

`COc1cc2c(Nc3ccc(Cl)cc3F)ncnc2cc1OCCOc1cccnc1` [Example 69, 4-(4-chloro-2-fluoroanilino)-6-methoxy-7-(2-(3-pyridyloxy)ethoxy)quinazoline] had a melting point of 188 to 190 °C.

In the case of `CCOC(=O)c1cc(COc2cc3ncnc(Nc4ccc(Cl)cc4F)c3cc2OC)ccn1` [Example 93, 4-(4-chloro-2-fluoroanilino)-7-(2-ethoxycarbonylpyrid-4-yl)methoxy-6-methoxyquinazoline], the melting point fell in the range of 212 to 214 °C.

Values taken from patent US6362336B1, “Chemical compounds” (Zeneca Limited, priority 1995, dated 2002).
